# Laboratory results: patent US7033829B2, “Method to inhibit cell growth using oligonucleotides” (Trustees of Boston University, priority 2000, dated 2006)
# Oligonucleotides are written 5' to 3', each unit as a sugar letter and its base; * is a phosphorothioate linkage, no mark a phosphodiester; rarer units and linkages stand in square brackets, end groups in braces. Plain capitals give the bases only. d = 2'-deoxy (DNA); {P} = phosphate
# What was measured:
# [1] = tested on: E2F1, p53, p53 phosphorylated at serine 15; assay: Western blot of E2F1, p53 and phospho-p53 in neonatal fibroblasts; format: cell-based, human
# Method: Cells were plated at a density of 180,000 cells/ml in RPMI 1640 medium supplemented with 3% FBS. Cells were treated with 40 μM of either of the oligonucleotides for 72 hours. Cells were then collected, washed and fixed for 30 minutes in 4% paraformaldehyde and then permeabilized with 0.1% Triton X-100 for 2 minutes. The TUNEL assay was carried out with components and instructions of the In Situ Cell Death Detection Kit using fluorescein-labeled dUTP from Boehringer Mannheim. TUNEL-positive cells were detected by FACS analysis and confocal microscopy. Cellular Uptake of Oligonucleotides For confocal analysis, Jurkat cells were plated on Permanox chamber slides (Lab-Tek, Naperville, Ill.) and treated for 4 hours with fluorescein phosphoramidite (FAM)-labeled oligonucleotides (Research Genetics, Inc., Huntsville, Ala.). Adherent cells were fixed in 4% paraformaldehyde in PBS, stained with propidium iodide (PI) to identify nuclei, mounted with Slowfade reagent (Molecular Probes, Eugene, Oreg.), covered with a coverslip and stored at 4° C. in the dark. Uptake of the oligonucleotides was assessed in 5–10 μm sections with a Carl Zeiss LSM 510 confocal laser microscope. Computer images assign green to the FAM-oligonucleotides, red to PI, and yellow to co-localization of the signals. FACS analysis was performed on Jurkat cells identically treated with the FAM-oligonucleotides for 4 hours, then fixed in 0.5 ml of 4% paraformaldehyde overnight at 4° C. Fluorescence was measured on the FL-1 channel. Western Blot Analysis and Antibodies Western blot analysis was performed as previously described [Eller, M. S., et al., (1996), Proc Natl Acad Sci USA 93, 1087–1092]. Antibody Ab-6 (DO-1 clone, Oncogene Research Products, Cambridge, Mass.) detected p53; antibody KH95 (Santa Cruz Biotechnology, Inc., Santa Cruz, Calif.) detected E2F1; antibody Ab-4 (Oncogene Research products) detected p73. Phospho-p53 (serine 15) was detected using the #9284 polyclonal antibody and phospho-p95/Nbs1 (serine 343) was detected by a phospho-p95/Nbs1-specific polyclonal antibody, both antibodies from Cell Signaling Technology (Beverly, Mass.). p95/Nbs1 antibody (#NB-100-143, Novus Biologicals, Littleton, Colo.) and an actin antibody (I-19, Santa Cruz Biotechnology, Santa Cruz, Calif.) were also used. Modification of p95/Nbs1 Jurkat and SCC12F cells were cultured and treated with the oligonucleotides as described above. After the indicated times, total protein was collected and analyzed by 8% PAGE and western blot using a polyclonal antibody to p95/Nbs1 (#NB-100-143, Novus Biologicals, Littleton, Colo.). Immunoprecipitation and treatment with a serine/threonine phosphatase was performed as described by Lim et al. [Lim, D. S. et al., Nature 404:613–617, 2000]. Transient Transfection and Expression of TRF2^DN The Ad TRF2^DN expression vector was the kind gift of Dr. Titia deLange (Rockefeller University). The control vector, pCMV LUC was the gift of Dr. M. Hedayati, Johns Hopkins University. Cells were plated at a density of 3.5×10^3 cells/cm^2. One day later, the cultures were transfected with 1 μg plasmid DNA/35 mm culture dish, using the Fugene 6 Transfection Reagent (Roche Molecular Biochemicals, Indianapolis, Ind.), following the protocol supplied by the manufacturer. Cells were collected at the indicated times after transfection and p95/Nbs1 was examined by western blot as described. Telomere Length Normal human fibroblasts were cultured for 5 days in the presence of either diluent or 40 μM 11mer-1, -2 or -3. The cells were then collected and the genomic DNA isolated using the DNeasy Tissue Kit (Qiagen, Valencia, Calif.). Telomere length was determined essentially as described by van Steensel and de Lange (van Steensel, B. and T. de Lange. 1997, Nature 385: 740–743) using the Telo TAGGG Telomere Length Assay from Roche Molecular Biochemicals (Indianapolis, Ind.) and the protocol supplied by the manufacturer. […]
# [2] = tested on: serine 15-phosphorylated p53, total p53, E2F1; assay: Western blot of p53 serine 15 phosphorylation and E2F1 in normal control fibroblasts; format: cell-based, human; details: 40 μM
# Method: Because the serine 15 site on p53 is known to be phosphorylated in an ATM-dependent manner after exposure to ionizing radiation (IR), we wished to examine the role of ATM in E2F1 induction and p53 serine 15 phosphorylation in response to the 11 mer-1. Fibroblasts from a patient with ataxia telangiectasia (AT) known to lack functional ATM protein, and age-matched normal control fibroblasts (N) were treated with either diluent, 40 μM 11mer-1, sham irradiation or IR (10 Gy). Cells were collected 3 hours (sham or IR) or 48 hours (diluent, 11mer-1) for western blot analysis to detect serine 15-phosphorylated p53 and total p53. In normal fibroblasts, the 11mer-1 induced a 10–15 fold increase in the level p53 phosphorylation on serine 15 compared to diluent-treated controls.
# [3] = tested on: Normal human neonatal keratinocyte cells; assay: Cell yield of normal keratinocytes; format: cell-based; details: 100 μM
# Method: Normal human neonatal keratinocyte cells were cultured as described above in Example 1 for SCC12F cells, and treated with either 100 μM T2 or diluent as a control. Cells were harvested for cell counts. The cell yield in cultures treated with T2 was reduced by 63% compared to that of paired control cultures after three days (FIG. 5).
# [4] = tested on: Primary newborn fibroblasts; assay: Protection of fibroblasts against H2O2; format: cell-based; details: for cell yields higher compared to diluent pre-treated control: 10 μM 3 days, within 72 hours
# Method: Primary newborn fibroblasts were treated for 3 days with 10 μM pTpT or diluent as control and then treated with 5×10^−5 or 5×10^−4 M H2O2. Within 72 hours of H2O2 exposure, cell yields of pTpT pre-treated cultures were 45±1% and 139±5% higher, respectively, compared to diluent pre-treated control samples. 72 hours after exposure of the […] H2O2 dose, only 9.6±2.4% of the diluent pre-treated cells survived.
# p53 = p53 immunoperoxidase staining in fibroblasts; format: cell-based, human; details: normal neonatal fibroblasts; 100 μM; within 24 hours
# Method: The effect of pTpT on the level and intracellular distribution of p53 in normal neonatal fibroblasts was examined by immunoperoxidase staining using a p53-specific monoclonal antibody (mAb 421, Oncogene, Cambridge, Mass.). Preconfluent cultures were treated with either 100 μM pTpT or diluent for 24 hours before cell staining. Cells were first fixed for one minute in Histochoice fixative (Amresco, Solon, Ohio) followed by a five-minute rinse in PBS. p53 was detected using the Vectastain Elite ABC kit (Vector Laboratories, Burlingame, Calif.) and the p53-specific monoclonal antibody mAb 421.
substance,measurement,setting,value
pGTTAGGGTTAG (DNA {P}-dGdTdTdAdGdGdGdTdTdAdG) [SEQ ID NO: 5],E2F1 increase peaked after,[1],12 to 24 h
same,increase in E2F1 seen as early as,[1],4 h
same,phosphorylated p53 (serine 15) first detected at,[1],4 h
same,increase in E2F1 compared to diluent or 11mer-2 treated controls,"[1]; 40 μM, 24 hours, densitometry",170–250%
same,increase in p53 compared to diluent or 11mer-2 treated controls,"[1]; 40 μM, 48 hours",60–300%
same,increase in p53 compared to diluent or 11mer-2 treated controls,"[1]; 40 μM, 72 hours",240–380%
same,p53 protein phosphorylated at serine 15,[1]; sustained through at least 48 hours,striking and selective increase
same,E2F1 levels,[2],induced E2F1 levels
same,increase in p53 phosphorylation on serine 15 compared to diluent,[2]; 48 hours,10–15 fold
same,level of total p53,"[2]; young adult donor, 48 hours",minimally induced
thymidine dinucleotide [pTpT],cell yield reduced compared to paired control cultures,[3]; after three days,63%
same,number of cells,[3]; three days (control: one population doubling),remained the same
same,cell yields higher compared to diluent pre-treated control,[4]; 5×10^−4 M H2O2,139±5%
same,cell yields higher compared to diluent pre-treated control,[4]; 5×10^−5 M H2O2,45±1%
same,increase of cell survival,[4]; 5×10^−4 M H2O2,2–9 fold
same,protection of cell survival,[4]; low H2O2 dose,complete protection
same,intranuclear p53,p53,an increase in intranuclear p53
